These results are taken from article PMC12221113, “Deferasirox Derivatives as Inhibitors of Kallikrein‐Related Peptidases Associated to Neurodegenerative Diseases” (Chemmedchem, 2025).

Read-outs that look alike come from different tables or passages of the source. Bounds are passed on as bounds.

What is called inhibition is the share of the control response that was lost under treatment. One may read the viability as a per cent measure of how many cells are alive, often set against a control. Usually Ki stands for a measure of affinity in units of concentration, obtained from inhibition or displacement. As usually defined, the IC50 is the point on the concentration scale where inhibition reaches its midpoint.

The target in one series is T1, KLK4 (Homo sapiens, UniProt Q9Y5K2).
T1 construct: purchased R&D Systems
T1 sequence (Q9Y5K2 31-254): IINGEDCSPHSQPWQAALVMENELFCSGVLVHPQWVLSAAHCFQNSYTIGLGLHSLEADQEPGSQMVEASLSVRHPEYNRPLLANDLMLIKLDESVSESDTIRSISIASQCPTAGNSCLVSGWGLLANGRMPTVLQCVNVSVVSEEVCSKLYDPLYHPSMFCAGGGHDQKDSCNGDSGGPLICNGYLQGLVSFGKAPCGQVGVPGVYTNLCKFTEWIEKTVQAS
In words: Selectivity screening, KLK4. In kind it is biochemical. The conditions noted are these: 50 μM compound, without Fe3+; read-out: percentage of inhibition KLK4.

The nature of series [1]: Calcein transchelation (calcein release) assay. The series is classed as physicochemical. The conditions noted are these: calcein 100 nM, 4 h at room temperature; estimation, assay not fully quantitative; read-out: Apparent affinity (pseudo‐affinity constant Kd for Fe3+).
Series [2] in a line: CCK8 cell viability assay, SH-SY5Y. In kind it is cell-based. The conditions noted are these: human, SH-SY5Y neuroblastoma cells, 25 and 50 μM, in absence or presence of iron (100 µM FAC), read-out: percentage of cell viability. For orientation: Formazan colour is commonly taken as a measure of viable cells.
Protocol: (§1) Human neuroblastoma cell line (SH-SY5Y) was purchased at American Type Culture Collection
(§2) Both cell lines were cultured in Dulbecco’s Modified Eagle Medium (DMEM)
(§3) containing 10% heat inactivated fetal bovine serum (FBS), 1% Penicillin/Streptomycin, 10 mM
(§4) Sodium Pyruvate, 2 mM L-Glutamine and 4,5 g/L D-glucose at 37°C, in a 5% humidified
(§5) incubator. Cells were cultivated until 80% confluence in flasks then were plated in 96-well
(§6) plates. For this experiment, SH-SY5Y were used at 10th passage and HMC3 at 13th. SH-SY5Y
(§7) cells were seeded at a density of 3x10^4 cells/well and HMC3 at a density of 10^4 cells/well. After
(§8) seeding, cells were left in complete medium overnight to adhere to the plates. After that, cells
(§9) were treated using inhibitors solubilized in DMSO at stock concentrations of 2,5 mM or 5 mM
(§10) with or without 10 mM iron. Iron solution was prepared by using FAC (Ferric Ammonium
(§11) Citrate, Sigma®) at stock concentration of 25 mM. After 24h of treatment, cell viability was
(§12) assessed with the CCK8 (Cell-Counting Kit 8) from TargetMol. After treatments, 10 µL of CCK8
(§13) reagent was diluted in 90 µL of complete medium and added to each well. After 3 hours at
(§14) 37°C, cell viability was assessed by absorbance measurement at 460 nm. Each viability assay
(§15) is the mean of two independent experiments performed in triplicates.
(§16) treated for 24h with the two selected concentrations of inhibitor (25 µM or 50 µM)
(§17) preincubated or not with 100 µM of FAC. The data are the mean of two independent
experiments performed in triplicates.
The nature of series [3]: CCK8 cell viability assay, HMC3. The series is classed as cell-based. The conditions noted are these: human, HMC3 microglial cells; HMC3, 24h, 25 and 50 μM, in absence or presence of iron (100 µM FAC); read-out: percentage of cell viability.
Protocol: as §1, §2, §3, §4, §5, §6, §7, §8, §9, §10, §11, §12, §13, §14, §15, §16, §17
experiments performed in triplicates.
The test system of series [4] is KLK's of the CNS triad (KLK1‐KLK6‐KLK8). The series can be described thus: Reversibility analysis by dilution after preincubation. The series is classed as biochemical, human. The conditions noted are these: 100-fold dilution after 15 min preincubation.
Protocol: Aliquots of reaction mixtures (1 μL) were added to 99 μL of buffer containing the fluorogenic substrate (experimental conditions identical to the routine protocol used for a given enzyme). The mechanism of inhibition was determined by varying substrate and inhibitor concentrations, the type of inhibition and inhibition parameter (Ki or Ki′) are determined by Dixon's plots.
A further series deals with T2, KLK5 (Homo sapiens, UniProt Q9Y337).
T2 sequence (Q9Y337 67-293 limits assumed): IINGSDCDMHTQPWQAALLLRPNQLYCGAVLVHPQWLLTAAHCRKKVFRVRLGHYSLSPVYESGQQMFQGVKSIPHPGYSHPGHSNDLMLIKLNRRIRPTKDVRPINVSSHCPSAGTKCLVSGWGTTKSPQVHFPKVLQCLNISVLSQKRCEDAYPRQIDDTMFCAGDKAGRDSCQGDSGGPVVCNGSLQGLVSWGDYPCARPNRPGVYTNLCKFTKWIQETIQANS
The series can be described thus: Selectivity screening, KLK5. The conditions noted are these: read-out: percentage of inhibition KLK5.

The next series has as its target T3, KLK13 (Homo sapiens, UniProt Q9UKR3).
T3 sequence (Q9UKR3 26-277 limits assumed): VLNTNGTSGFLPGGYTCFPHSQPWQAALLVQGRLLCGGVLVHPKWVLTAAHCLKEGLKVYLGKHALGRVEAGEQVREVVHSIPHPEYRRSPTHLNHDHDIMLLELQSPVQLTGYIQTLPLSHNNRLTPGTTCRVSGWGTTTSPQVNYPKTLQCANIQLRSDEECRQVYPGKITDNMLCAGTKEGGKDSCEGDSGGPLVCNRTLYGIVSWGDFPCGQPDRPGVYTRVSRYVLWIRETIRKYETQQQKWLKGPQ
The series can be described thus: Selectivity screening, KLK13. The conditions noted are these: read-out: percentage of inhibition KLK13.

Another series has as its target KLK1 (Homo sapiens, UniProt P06870). In words: KLK1 fluorogenic enzyme inhibition assay (H-PFR-AMC).
Another series has as its target KLK6 (Homo sapiens, UniProt Q92876). The series can be described thus: KLK6 fluorogenic enzyme inhibition assay (Boc-QAR-AMC).
The target of another series is T4, KLK8 (Homo sapiens, UniProt O60259).
T4 sequence (O60259 33-260): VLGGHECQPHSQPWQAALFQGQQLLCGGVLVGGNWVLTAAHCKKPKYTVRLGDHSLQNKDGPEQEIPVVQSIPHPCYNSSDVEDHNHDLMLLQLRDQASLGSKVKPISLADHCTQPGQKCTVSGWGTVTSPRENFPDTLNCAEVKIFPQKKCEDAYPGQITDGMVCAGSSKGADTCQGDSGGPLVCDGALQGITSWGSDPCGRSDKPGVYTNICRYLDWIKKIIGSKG
In words: KLK8 fluorogenic enzyme inhibition assay (Boc-VPR-AMC).

Series [5] is described as follows: UV–vis spectroscopy of Fe3+ chelation and complex stability. In kind it is physicochemical. The conditions noted are these: activity buffer pH 7.4, 1:1 ratio, t = 0 to 240 min. How it is done: UV–vis analysis of DFX was first performed to monitor the chelation process and the stability of the Fe^3+ complex over time at a 1:1 ratio, typically representing the duration of inhibition assay (30 min to 4 h) (Figure S1, Supporting Information). In these conditions of pH (7.4) and ligand‐to‐iron ratio and according to Steinhauser et al. the main species in solution is assigned to [Fe(DFX)2]^3−.^[ [49] ^] Indeed, we aimed to explore not only the chelation properties but also the impact of the chelated species on enzyme inhibition.
2.c. Chelation properties, iron interactions, and selectivity profiles of selected compounds targeting KLK activity.
Figure S2: Stability of the chelated species as monitored by spectrophotometry. UV/VIS spectra of molecules alone using activity buffer at pH 7.4 (in orange at 500 µM) or in the presence of FeCl3 (ratio of 1:1) at different times (t = 0 in red, 30 min in black, 60 min in blue and 240 min in green). The purple trace corresponds to iron only at 500 µM All data are representative of 2 independent experiments performed in duplicate. […]

[6] abbreviates: IC50 KLK1, 15 min preincubation at 37 °C, NI = not a hit (not above 50% inhibition at 50 μM).
Where [7] appears, read: IC50 KLK8, 15 min preincubation at 37 °C, NI = not a hit (not above 50% inhibition at 50 μM).

Sequence of KLK1 (P06870 25-262): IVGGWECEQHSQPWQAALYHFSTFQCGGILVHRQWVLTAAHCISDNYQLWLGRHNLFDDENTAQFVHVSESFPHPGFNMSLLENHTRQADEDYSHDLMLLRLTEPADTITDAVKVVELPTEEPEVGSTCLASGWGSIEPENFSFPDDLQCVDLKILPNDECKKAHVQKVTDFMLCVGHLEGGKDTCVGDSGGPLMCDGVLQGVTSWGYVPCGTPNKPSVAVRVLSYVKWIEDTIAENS
Protocol for KLK13: (§18) All enzyme stocks were stored at −20 °C and purchased from R&D Systems as proenzymes (KLK6, KLK8, KLK13) or as mature and active forms (KLK5). Activation of KLK6, KLK8, and KLK13 is performed in optimized buffers. The activation reaction is initiated by Lysyl‐Endopeptidase at 2.5 mU mL^−1 (Wako Bioproducts). The activation reaction is stopped by diluting the enzyme to 0.5 μg mL^−1 in assay buffer (50 mM Tris, 1 M Citrate, 0.05% w/v Brij‐35, pH 8) to obtain an active enzyme stock. KLK1 was purchased from R & D Systems as pro‐KLK1. Activation of KLK1 is performed in 50 mM Tris‐HCl, 10 mM CaCl2, 150 mM NaCl, 0.05% Brij‐35, pH 7.5. The activation reaction is initiated by bacterial thermolysin at 0.4 μg mL^−1 (Sigma‐Aldrich) and stopped by addition of 100 mM EDTA (Sigma‐Aldrich) to obtain an active KLK1 stock at the same concentration of 100 μg mL^−1. The activation reactions for KLK7 are initiated bacterial thermolysin at 0.4 μg mL^−1 (Sigma‐Aldrich) and stopped by addition of 100 mM EDTA (Sigma‐Aldrich) to obtain active stocks. All enzyme stocks were stored at −20 °C. H‐PFR‐AMC (KLK1), Boc‐VPR‐AMC (KLK5, KLK8, KLK13), Boc‐QAR‐AMC (KLK6, Plasmin), substrates were purchased from Bachem. MeO‐Suc‐RPY‐AMC (KLK7) substrate was purchased from AAT Bioquest. Plasmin (Sigma‐Aldrich) was purchased in mature and active form.
(§19) Compounds were screened on KLKs using a BMG Fluostar microplate reader (black 96‐well microplates). Hit compounds were screened on the selected group of enzymes using optimized concentrations and buffers (KLK1 0.8 nM, KLK4 10 nM, KLK5 0.2 nM; KLK6 1.9 nM; KLK7 6 nM; KLK8 0.2 nM; KLK11 5.2 nM, KLK13 0.47 nM, KLK14 2.5 nM, plasmin 3.3 nM, thrombin 0.1 nM, tissue‐plasminogen activator (tPA) 0.1 nM, matriptase 1 nM, cathepsin L 2 nM) either in absence or prior preincubation in the presence of 100 μM of Fe^3+.
(§20) The proteases are first preincubated for 15 min with each compound (50 and 100 μM) or with DMSO (<2%, negative control) in a total volume of 85 μL of 50 mM Tris buffer, 1 M citrate, 0.05% Brij‐35, pH 7, 37 °C. The reaction is triggered by the appropriate substrate at the optimized concentration in 15 μL of 50 mM Tris buffer, 1 M citrate, 0.05% Brij‐35, pH 8 (H‐PFR‐AMC 100 μM; Boc‐VPR‐AMC 100 μM; Boc‐QAR‐AMC 100 μM; Meo‐Suc‐RPY‐AMC 150 μM, Z‐LR‐AMC 100 μM, Z‐GGR‐AMC 100 μM) and followed for 30 min at 37 °C. […] The release of the AMC fluorescent group is detected using the following wavelengths: λex = 360 nm and λem = 460 nm. The percent inhibition is calculated from Equation (1) where V 0 is the initial rate of the DMSO control, the initial rate in the presence of the inhibitor V i. (1) %inhibition=(1−(vi/v0))×100
Protocol for KLK5: as §18, §19, §20

Consider `O=C(c1ccccc1)n1nc(-c2ccccc2O)nc1-c1ccccc1O` [3e], for which the inhibition at 50 µM at KLK4 amounted to 67.2%; at KLK5 it was 98.8%; on KLK13 it was 97.1%; at KLK1 (read-out: percentage of inhibition KLK1), 82.1%; on KLK6 (read-out: percentage of inhibition KLK6) it was 82.4%. The Kd in [1] was 0.41 ± 0.035 nM. Moreover, the viability at 24 h in series [2] and in [3] was greater than 80% throughout. The “reversibility and time dependence of inhibition” value in [4] is “reversible and time‐independent inhibitors”. This compound showed a Ki at KLK1 of 24 µM. The “Type of inhibition KLK1” value at KLK1 (Dixon plot, without Fe3+) was “competitive inhibitor”. In addition, the IC50 is 23.3 ± 0.9 µM on KLK1 (setting [6]) and greater than 50 µM at KLK8.

Take `CCOC(=O)[C@H]1CC[C@H](n2nc(-c3ccccc3O)nc2-c2ccccc2O)CC1` [3fa]: on KLK8, the IC50 is greater than 50 µM.

Compound `O=C(O)[C@H]1CC[C@H](n2nc(-c3ccccc3O)nc2-c2ccccc2O)CC1` [3fb] had an IC50 on KLK8 greater than 50 µM.

Turning to `CCOC(=O)Cn1nc(-c2ccccc2O)nc1-c1ccccc1O` [3g], on KLK8, the IC50 is greater than 50 µM.

Consider `O=C(O)Cn1nc(-c2ccccc2O)nc1-c1ccccc1O` [3h], for which the Kd in [1] is 0.22 ± 0.024 nM. At KLK8, this compound yielded an IC50 greater than 50 µM.

On KLK8, `COC(=O)c1ccc(-n2nc(-c3ccccc3O)nc2-c2ccccc2O)cc1` [3i] gave an IC50 greater than 50 µM.

For the compound `COC(=O)CNC(=O)c1ccc(-n2nc(-c3ccccc3O)nc2-c2ccccc2O)cc1` [3ja], the Kd in series [1] was 0.175 ± 0.015 nM. Also, the concentration for half-maximal inhibition (IC50) on KLK8 is greater than 50 µM.

On to `O=C(O)CNC(=O)c1ccc(-n2nc(-c3ccccc3O)nc2-c2ccccc2O)cc1` [3jb], for which, in series [1], the Kd is 0.078 ± 0.009 nM. At KLK8, half-maximal inhibition (IC50) was put at 27 ± 0.6 µM.

The compound `COC(=O)C(Cc1ccccc1)NC(=O)c1ccc(-n2nc(-c3ccccc3O)nc2-c2ccccc2O)cc1` (centres unmarked) [3ka] showed an IC50 at KLK8 greater than 50 µM.

As for `O=C(NC(Cc1ccccc1)C(=O)O)c1ccc(-n2nc(-c3ccccc3O)nc2-c2ccccc2O)cc1` (centres unmarked) [3kb], the IC50 came out at 16.4 ± 1 µM against KLK1 (setting [6]) and 24.8 ± 1.9 µM at KLK8.

On to `COC(=O)C(Cc1c[nH]c2ccccc12)NC(=O)c1ccc(-n2nc(-c3ccccc3O)nc2-c2ccccc2O)cc1` (centres unmarked) [3la], for which the Kd in [1] was 0.13 ± 0.02 nM. Moreover, the half-maximal inhibitory concentration (IC50) on KLK8 was greater than 50 µM.

For the compound `COC(=O)C1CCCN1C(=O)c1ccc(-n2nc(-c3ccccc3O)nc2-c2ccccc2O)cc1` (centres unmarked) [3ma], in series [1], the Kd was 0.105 ± 0.022 nM. Moreover, the IC50 against KLK8 was greater than 50 µM.

With `Oc1ccccc1-c1nc(-c2ccccc2O)n(-c2ccccc2)n1` [3n], the Kd in [1] is 0.081 ± 0.045 nM. Moreover, the IC50 against KLK8 (setting [7]) is greater than 50 µM.

At KLK8, `N#Cc1ccc(-n2nc(-c3ccccc3O)nc2-c2ccccc2O)cc1` [3o] yielded a half-inhibitory concentration (IC50) greater than 50 µM.

As to `Oc1ccccc1-c1nc(-c2ccccc2O)n(-c2ccc(Br)cc2)n1` [3p], the IC50 against KLK8 is greater than 50 µM.

`COc1ccc(-n2nc(-c3ccccc3O)nc2-c2ccccc2O)cc1` [3q] displayed a half-inhibitory concentration (IC50) against KLK8 (setting [7]) greater than 50 µM.

For `NS(=O)(=O)c1ccc(-n2nc(-c3ccccc3O)nc2-c2ccccc2O)cc1` [3s], the concentration for half-maximal inhibition (IC50) against KLK8 was greater than 50 µM.

For the compound `O=S(=O)(O)c1ccc(-n2nc(-c3ccccc3O)nc2-c2ccccc2O)cc1` [3t], the Kd in series [1] was 0.165 ± 0.017 nM. In addition, in [5], the “UV–vis spectrum in the presence of FeCl3 (iron complex formation)” value (from here on “UV–vis spectrum in the presence of FeCl3”) is “appearance of an absorption band with a maximum at 468 nm”. Further, at KLK8, the IC50 is 29.5 ± 1.4 µM.

As to `NC(=O)c1ccc(-n2nc(-c3ccccc3O)nc2-c2ccccc2O)cc1` [3u], in series [1], the Kd is 0.093 ± 0.007 nM. On KLK8, the IC50 is 23.7 ± 2.3 µM.

For `Oc1ccccc1-c1nc(-c2ccccc2O)n(-c2ccc(-c3nnn[nH]3)cc2)n1` [3v], at KLK8, the IC50 came out at 44.1 ± 1.7 µM.

For the compound `[Cl][Fe]([Cl])[Cl]` [Fe3+], the IC50 on KLK1 (read-out: Pseudo-IC50 of Fe3+ on KLK1, Figure S4 A, curve fit y=(100*M0)/(M0+M2)) stood at 989 µM; at KLK6 (read-out: Pseudo-IC50 of Fe3+ on KLK6, Figure S4 B, curve fit y=(100*M0)/(M0+M2)), 1320 µM; at KLK8 (read-out: Pseudo-IC50 of Fe3+ on KLK8, Figure S4 C, curve fit y=(100*M0)/(M0+M2)), 1120 µM.

For the compound `O=C(O)c1ccc(-n2nc(-c3ccccc3)nc2-c2ccccc2O)cc1` [compound 9], in series [5], the “UV–vis spectrum in the presence of FeCl3” value is reported as “no changes in the absorption spectra”. The IC50 was greater than 50 µM against KLK1 (setting [6]), greater than 50 µM against KLK6 and 46.8 ± 0.2 µM against KLK8.

For the compound `COc1ccc(-c2nc(-c3ccccc3O)n(-c3ccc(C(=O)O)cc3)n2)cc1` [compound 10], the results for the IC50 at KLK1 (setting [6]), on KLK6 and at KLK8 were greater than 50 µM, greater than 50 µM and 33.4 ± 1.1 µM, respectively.

As to `COc1ccc(-c2nc(-c3ccccc3O)nn2-c2ccc(C(=O)O)cc2)c(O)c1` [compound 13], in [1], the Kd is 0.077 ± 0.019 nM. The “UV–vis spectrum in the presence of FeCl3” value in series [5] is recorded as “a similar absorption band is observed”. Further, the half-maximal inhibitory concentration (IC50) on KLK1 (setting [6]) was greater than 50 µM; against KLK6, greater than 50 µM; at KLK8, 24.8 ± 1.3 µM.

For `O=C(O)c1ccc(-n2nc(-c3ccccc3O)nc2-c2ccc(O)cc2O)cc1` [compound 14], the IC50 against KLK1 (setting [6]) was greater than 50 µM; against KLK6, greater than 50 µM; at KLK8, 38.3 ± 3.5 µM.

Consider `COc1ccc(-c2nc(-c3cccnc3O)n(-c3ccc(C(=O)O)cc3)n2)cc1` [compound 19], for which the IC50 on KLK1 (read-out: IC50 KLK1, 15 min preincubation at 37 °C, NI = not a hit (not above 50% inhibition at 50 μM)) is greater than 50 µM.

Consider `COc1ccccc1-c1nc(-c2ccccc2OC)n(-c2ccc(C(=O)O)cc2)n1` [compound 21], for which the IC50 against KLK1 (setting [6]), against KLK6 and against KLK8 was greater than 50 µM throughout.

As for `Oc1ccccc1-c1noc(-c2ccccc2O)n1` [compound 23], the IC50 at KLK8 (setting [7]) is greater than 50 µM.
